Patent US20060099712A1, “Correlation of anti-cancer activity of dyes with redox potentials” (Eastman Kodak Company, priority 2004, published 2006)
Values joined by “and” are separate entries in the source; they are usually repeats but may differ in a detail not shown here. Identical values can stand only once.

Test system: CX-1 Human Colon Carcinoma
Test: Clonogenic dye screening assay, CX-1 cells (IC50)
Format: cell-based
Set-up: CX: unit not given here
Details: for CX: CX-1 cells; for CV/C: selectivity ratio, value of 1 where dye inactive; for CV/CX (selectivity, kill ratio): ratio of IC50 in normal CV-1 line to IC50 in carcinoma CX-1 line; for CX (IC50 in the CX-1 cell line): 3 hrs treatment, colonies after 7-10 days, unit from method b117-118
Outline: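 Cells seeded 16-30 h ahead (2000 CX-1 or 1000 CV-1 per well), exposed to serially diluted dyes for 3 h at 37 °C, rinsed three times, then grown into colonies. Eight-point curves spanned 0.32-0.0015 μg/mL (CX-1) and 3.2-0.025 μg/mL (CV-1). IC50 is the concentration killing 50% of cells.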

[1] = Table XXI, oxathiacarbocyanine nitrogen substituents
[2] = Table XVI, selectivity ratio of IC50 values

CX (IC50 in the CX-1 cell line)	SMILES	CV/CX (selectivity, kill ratio)	other results
–	CCN1/C(=C/C=C/c2sc3ccccc3[n+]2CCS(=O)(=O)CC)Oc2ccccc21 [R1=CCS02CC, R2=Et]	–	CX [1]: 0.3; CV/C (Table XXI): >33.3
–	CCOC(=O)c1c(C)c(C=CC=C2SCCN2C)cc2[n+]1CCc1ccccc1-2.[O-][Cl+3]([O-])([O-])[O-] [Dye D-171]	62.5	–
0.01 µg/mL	CCN1C(=CC=Cc2sc3cc(OC)ccc3[n+]2CC)Sc2cc(OC)ccc21 [drawing 41|Et|6-MeO|6-MeO]	9.0	–
–	CCN1/C(=C/C=C/c2sc3cc(OC)c(OC)cc3[n+]2CC)Oc2ccccc21 [drawing 44|E|5,6-MeO|H]	12.5	–
–	CC[n+]1c(/C=C/C=C2\Oc3ccccc3N2CC(F)(F)F)sc2ccccc21 [R1=Et, R2=CC(F)3]	–	CX [1]: 0.1; CV/C (Table XXI): 50.0
–	CCN1/C(=C/C=C/c2sc3ccccc3[n+]2CC(=O)c2ccc(O)c(O)c2)Oc2ccccc21 [R1=CC(═0)Ph-3,4-OH, R2=Et]	–	CX [1]: >1.0; CV/C (Table XXI): 1.0
0.08 µg/mL	CC1CC2=C(c3ccccc31)N(C)/C(=C/C=C/c1sc3c([n+]1C)-c1ccccc1C(C)C3)S2 (stereo not shown) [drawing 43|M|4,5-H, 5-ME|4,5-H, 5-ME]	1.25	–
0.1 µg/mL	CC[n+]1c(/C=C(/C=C2\Oc3ccccc3N2C)Sc2ccccc2)sc2ccccc21 [drawing 39|M/E|H|SPh]	3.0	–
<0.005 µg/mL	C(/C=C/c1sc2cccc3c2[n+]1CCC3)=C1/Sc2cccc3c2N1CCC3 [Dye D-102]	160	–
0.02 µg/mL	CC(=Cc1sc2ccccc2[n+]1C)C=C1Sc2ccccc2N1C [drawing 38|M|H|Me|H]	5.0	–
0.3 µg/mL	CCN1/C(=C/C=C/c2sc3ccccc3[n+]2CC(=O)c2ccccc2)Oc2ccccc21 [drawing 37|CC(═O)Ph|Et]	10.0	–
–	CN1/C(=C/C=C/c2sc3ccccc3[n+]2C)Sc2ccc3ccccc3c21 [naphtho/1,2/thiazole (R=M)]	–	CX (Table XVI, unsymmetrical dyes): <0.005; CV/CX [2]: 10.0
–	CCN1/C(=C/C=C(\OC(C)=O)c2sc3ccccc3[n+]2CC)Oc2ccccc21 [drawing 39|E|OAc|H]	10.0	–
>0.32 µg/mL	OCCN1C(=CC=Cc2sc3ccccc3[n+]2CCO)Sc2ccccc21 [drawing 36|CCOH|CCOH]	10.0	CV/CX (selectivity, kill ratio) (listed as N,N′-di(2-hydroxyethyl) dye): not active
–	CCN1C(=CC=Cc2sc3ccccc3[n+]2CC)Sc2cc3ccccc3cc21 [naphtho/2,3/thiazole]	–	CX (Table XVI, unsymmetrical dyes): 0.007; CV/CX [2]: 57.0
–	CCN1/C(=C/C=C/c2sc3ccccc3[n+]2CC)Oc2cc(C)c(Cl)cc21 [drawing 44|E|H|5-Cl, 6-Me]	11.4	–
–	CC[n+]1c(/C=C/C=C2\Sc3ccc4ccccc4c3N2C)sc2ccccc21 [naphtho/1,2/thiazole (R=E/M)]	–	CX (Table XVI, unsymmetrical dyes): 0.300; CV/CX [2]: 13.3
–	C=C(Br)C[n+]1c(/C=C/C=C2\Oc3ccccc3N2CC)sc2ccccc21 [R1=CC(Br)═C, R2=Et]	–	CX [1]: 0.03; CV/C (Table XXI): 33.3

CX (IC50 in the CX-1 cell line)	SMILES	CV/CX (selectivity, kill ratio)	other results
–	CCN1/C(=C/C=C/c2oc3c(Cl)c(C)c(Cl)cc3[n+]2CC)Oc2c1cc(Cl)c(Cl)c2C [drawing 45|5,7-Cl, 6-Me|5,6-Cl, 7-Me]	>10.0	–
0.02 µg/mL	COc1ccc2ccc3c(c2c1)N(C)/C(=C/C=C/c1sc2ccc4ccc(OC)cc4c2[n+]1C)S3 [drawing 43|M|8-MeO|8-MeO]	40.0	–
–	CCN1/C(=C/C=C/c2sc3ccccc3[n+]2CC)Oc2cccc(O)c21 [drawing 44|E|H|4-OH]	0.43	–
–	CCN1/C(=C/C=C/c2sc3ccccc3[n+]2CC(=O)c2ccccc2)Oc2ccccc21 [R1=CC(═0)Ph, R2=Et]	–	CX [1]: 0.3; CV/C (Table XXI): 10.0
0.015 µg/mL	CSC(=Cc1sc2ccccc2[n+]1C)C=C1Sc2ccccc2N1C [drawing 38|M|H|SMe|H]	26.6	–
–	CCN1/C(=C/C=C/c2sc3cc(O)c(O)cc3[n+]2CC)Sc2ccccc21 [drawing 41|Et|5,5-OH|H]	10.0	–
–	CC[n+]1c(/C=C/C=C2\[Te]c3ccc4ccccc4c3N2C)sc2ccccc21 [naphtho/1,2/tellurazole]	–	CX (Table XVI, unsymmetrical dyes): 0.10; CV/CX [2]: 3.0
–	CCN1C=CC(=C/C=C/c2sc3ccccc3[n+]2CC)c2ccsc21 [4-thieno/2,3-b/pyridine]	–	CX (Table XVI, unsymmetrical dyes): 0.04; CV/CX [2]: 5.0
0.04 µg/mL	CCSC(=C\c1sc2ccc3ccccc3c2[n+]1CC)/C=C1\Oc2ccc3ccccc3c2N1CC [drawing 40|E|SEt]	1.25	–
0.08 µg/mL	CCN1/C(=C/C=C/c2sc3ccc(-c4ccccc4)cc3[n+]2CC)Sc2ccc(-c3ccccc3)cc21 [drawing 41|Et|5-Ph|5-Ph,]	1.25	–
–	CCN1/C(=C/C=C/c2sc3ccccc3[n+]2CCNS(=O)(=O)c2ccc(C)cc2)Oc2ccccc21 [R1=CCNS02Ph-4C, R2=Et]	–	CX [1]: 0.3; CV/C (Table XXI): 26.7
0.05 µg/mL	CCN1/C(=C/C=C/c2oc3ccc(-c4ccccc4)cc3[n+]2CCNC(C)=O)Sc2ccc(OC)cc21.F[B-](F)(F)F [Dye D-154]	160	–
0.07 µg/mL	CCN1C(=CC=c2sc(=Cc3sc4ccccc4[n+]3CC)n(CC)c2=O)Sc2ccccc21 [drawing 51|Et]	22.8	–
0.008 µg/mL	CC[n+]1c(/C=C(/C=C2\Sc3ccccc3N2C)SC)sc2ccccc21 [drawing 38|E/M|H|SMe|H]	37.5	–
0.16 µg/mL	CCN1C(=CC=Cc2oc3cc(C)c(Cl)cc3[n+]2CC)Oc2cc(C)c(Cl)cc21 [drawing 45|5-Cl, 6-Me|5-Cl, 6-Me]	12.5	–
–	CCSC(CCN1/C(=C/C=C/c2sc3ccccc3[n+]2CCC(SCC)SCC)Sc2ccccc21)SCC [R1=CCC(SEt)2, R2=CCC(SEt)2]	–	CX (Table XX, thiacarbocyanine nitrogen substituents): >0.32; CV/CX (Table XX, ratio given a value of 1 where dye inactive): 4.1
–	CC[n+]1c(/C=C/C=C2\Oc3cc([N+](=O)[O-])c(Cl)cc3N2C)sc2cc([N+](=O)[O-])ccc21 [drawing 44|E/M|6-N03|5-Cl, 6-N03]	10.0	–

SMILES	CX (IC50 in the CX-1 cell line)	CV/CX (selectivity, kill ratio)	other results
CC[n+]1c(/C=C/C=C2\[Te]c3ccccc3N2C)sc2ccc3ccccc3c21.[I-] [Dye D-151]	0.007 µg/mL	71 and 71.42	CX (Table XVII, benzotellurazole derivatives): 0.007; CV/CX (Table XVII, selectivity ratio of IC50 values): 71.4
